Laboratory results from PubChem BioAssay (NCI).
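Exposure lasted 48 hours, with cells grown in 96-well plates and compounds tested at five concentrations. GI50 = concentration required for 50% inhibition of growth. TGI is the concentration that stops growth completely.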

How the values were obtained:
Experiment in all cases: growth of human tumour cells (NCI), 48 h
CAKI-1 renal = test system: CAKI-1 renal
KM12 colon = test system: KM12 colon
LOX IMVI melanoma = test system: LOX IMVI melanoma
NCI-H226 lung = test system: NCI-H226 lung
RPMI-8226 leukemia = test system: RPMI-8226 leukemia
RXF 393 renal = test system: RXF 393 renal
SK-OV-3 ovarian = test system: SK-OV-3 ovarian
SW-620 colon = test system: SW-620 colon
T-47D breast = test system: T-47D breast
SK-MEL-28 melanoma = test system: SK-MEL-28 melanoma

CCc1n[nH]c(=O)n1CCCCCCCCCCCCn1c(CC)n[nH]c1=O
TGI (CAKI-1 renal): > 100 µM
TGI (KM12 colon): > 100 µM
TGI (LOX IMVI melanoma): 99 µM
TGI (NCI-H226 lung): > 100 µM
TGI (RPMI-8226 leukemia): > 100 µM
TGI (RXF 393 renal): > 100 µM
TGI (SK-OV-3 ovarian): > 100 µM
TGI (SW-620 colon): > 100 µM
TGI (T-47D breast): 82.9 µM

CN1CCC(CNc2cc(C3(C(=O)Nc4cc(C(=O)Nc5ccc(Cl)c(C(F)(F)F)c5)ccc4F)CC3)ncn2)CC1
GI50 (KM12 colon): 2.58 µM
TGI (KM12 colon): 6.91 µM
GI50 (NCI-H226 lung): 13.6 µM
TGI (NCI-H226 lung): 36.1 µM
GI50 (SK-OV-3 ovarian): 2.17 µM
TGI (SK-OV-3 ovarian): 4.58 µM
GI50 (SW-620 colon): 2.54 µM
TGI (SW-620 colon): 5.32 µM
GI50 (T-47D breast): 4.14 µM
TGI (T-47D breast): 26.8 µM

CN(C)CCNc1ccc2c(=O)n(CCN(C)C)c(=O)n3c4ccc(O)cc4c(=O)c1c23
TGI (KM12 colon): 2.15 µM
TGI (LOX IMVI melanoma): 0.217 µM
TGI (NCI-H226 lung): 0.322 µM
TGI (RPMI-8226 leukemia): 0.417 µM
TGI (RXF 393 renal): 0.224 µM
TGI (SK-MEL-28 melanoma): 0.863 µM
TGI (SK-OV-3 ovarian): 1.04 µM
TGI (SW-620 colon): 0.67 µM
TGI (T-47D breast): 0.717 µM

Cn1c(=O)c2c(nc3n(CC(O)CCl)c(=O)ccn23)n(C)c1=O (stereo not given)
TGI (CAKI-1 renal): 66.2 µM
TGI (KM12 colon): > 100 µM
TGI (LOX IMVI melanoma): > 100 µM
TGI (NCI-H226 lung): > 100 µM
TGI (RPMI-8226 leukemia): > 100 µM
TGI (RXF 393 renal): > 100 µM
TGI (SK-MEL-28 melanoma): > 100 µM
TGI (SK-OV-3 ovarian): > 100 µM
TGI (SW-620 colon): > 100 µM
TGI (T-47D breast): > 100 µM

NC(=O)Nc1c(Cl)cc(S(N)(=O)=O)cc1Cl
TGI (CAKI-1 renal): > 100 µM
TGI (KM12 colon): > 100 µM
TGI (LOX IMVI melanoma): > 100 µM
TGI (NCI-H226 lung): > 100 µM
TGI (RPMI-8226 leukemia): > 100 µM
TGI (RXF 393 renal): > 100 µM
TGI (SK-MEL-28 melanoma): > 100 µM
TGI (SK-OV-3 ovarian): > 100 µM
TGI (SW-620 colon): > 100 µM

O=c1[nH]c(Nc2ccccc2)nc2c1ncn2CC(O)CSCCO (stereo not given)
TGI (CAKI-1 renal): > 100 µM
TGI (KM12 colon): > 100 µM
TGI (LOX IMVI melanoma): > 100 µM
TGI (NCI-H226 lung): > 100 µM
TGI (RPMI-8226 leukemia): > 100 µM
TGI (SK-MEL-28 melanoma): > 100 µM
TGI (SK-OV-3 ovarian): > 100 µM
TGI (SW-620 colon): > 100 µM
TGI (T-47D breast): > 100 µM

C#CCNC(CSSCC(N)C(=O)O)C(=O)O (stereo not given)
TGI (CAKI-1 renal): > 100 µM
TGI (KM12 colon): > 100 µM
TGI (NCI-H226 lung): > 100 µM
TGI (RPMI-8226 leukemia): > 100 µM
TGI (RXF 393 renal): > 100 µM
TGI (SK-MEL-28 melanoma): > 100 µM
TGI (SK-OV-3 ovarian): > 100 µM
TGI (SW-620 colon): > 100 µM
TGI (T-47D breast): > 100 µM

O=c1[nH]c2nc3ccccc3c(=O)n2/c1=C/c1ccc(Cl)cc1
TGI (CAKI-1 renal): > 100 µM
TGI (KM12 colon): > 100 µM
TGI (LOX IMVI melanoma): > 100 µM
TGI (RPMI-8226 leukemia): > 100 µM
TGI (RXF 393 renal): > 100 µM
TGI (SK-MEL-28 melanoma): > 100 µM
TGI (SK-OV-3 ovarian): > 100 µM
TGI (SW-620 colon): 59.7 µM
TGI (T-47D breast): > 100 µM

O=C(/C=C(/C=C/c1ccc2[nH]ccc2c1)OB(F)F)/C=C/c1ccc2[nH]ccc2c1
GI50 (CAKI-1 renal): 2.56 µM
TGI (CAKI-1 renal): 10.1 µM
GI50 (RXF 393 renal): 1.56 µM
TGI (RXF 393 renal): 3.63 µM
GI50 (SK-OV-3 ovarian): 3.43 µM
TGI (SK-OV-3 ovarian): > 100 µM
GI50 (T-47D breast): 1.99 µM
TGI (T-47D breast): > 100 µM

Cc1ccc2c(c1)-c1nc(N)c(C#N)c(-c3ccc(Cl)cc3)c1CCS2(=O)=O
TGI (CAKI-1 renal): > 100 µM
TGI (KM12 colon): > 100 µM
TGI (LOX IMVI melanoma): > 100 µM
TGI (NCI-H226 lung): > 100 µM
TGI (SK-MEL-28 melanoma): > 100 µM
TGI (SW-620 colon): > 100 µM
TGI (T-47D breast): > 100 µM

CCn1nc(C)c2c1C(=O)NCC(=O)N2
TGI (CAKI-1 renal): > 100 µM
TGI (KM12 colon): > 100 µM
TGI (RXF 393 renal): > 100 µM
TGI (SK-MEL-28 melanoma): > 100 µM
TGI (SK-OV-3 ovarian): > 100 µM
TGI (SW-620 colon): > 100 µM
